{"source": "patent US20130156750A1", "about": "“Compositions and Methods for Using Human YKL-40 to Treat Acute Lung Injury” (YALE UNIVERSITY, priority 2010, published 2013)", "key": {"BEAS-2B cells": {"tested_on": "BEAS-2B cells", "assay": "In vitro oxygen exposure of BEAS-2B cells, YKL-40 expression by real-time RT-PCR", "assay_type": "cell-based, human", "details": "95% O2, pretreatment 10 mM 1 hour before oxygen exposure, FIG. 1G", "method": "mRNA levels were assessed by real-time reverse transcriptase-polymerase chain reaction, as previously described. […] The sequences for the primers that were used were obtained from Primer Bank online (pga.mgh.harvard.edu/primerbank) Human bronchial epithelial cell line BEAS-2B cells (ATCC, Rockville, Md.) were incubated in complete bronchial epithelial basal medium (Lonza, Walkersville, Md.). They were placed in an airtight modular incubator chamber (Billups-Rothenberg, Del Mar, Calif.), which had been flushed continuously with 95% O2/5% CO2 until the oxygen level inside the chamber reached approximately 95%. The incubator chamber was then placed in a tissue culture incubator at 37° C., the O2 inside the chamber was replaced every 24 hours, and the cells were harvested at the desired time points (24-72 h). The responses in these cells were compared with events in cells incubated in 5% CO2 and air. In select experiments, the cells were incubated with N-acetyl-L-cysteine (Sigma, St. Louis, Mo.), which was added at a dose of 10 mM 1 hour before oxygen exposure, or its vehicle control."}, "mice exposed to 100% O2": {"tested_on": "mice exposed to 100% O2", "assay": "Hyperoxic acute lung injury (100% O2 exposure) in mice", "assay_type": "in vivo", "from_the_text": "BRP-39^−/− mice were generated and used as previously described (Lee et al., 2009, J Exp Med 206; 1149-1166). The mice were generated on a mixed 129/C57BL/6 background and subsequently bred for more than 10 generations onto a C57BL/6 background. Transgenic mice in which human YKL-40 was tightly and inducibly overexpressed (CC10-rtTA-tTS-YKL-40) in a lung-specific manner were generated with constructs and approaches that have been previously described. (Lee et al., 2009, J Exp Med 206:1149-1166). Mice that lacked BRP-39 and produced YKL-40 only in pulmonary epithelial cells (CC10-rtTA-tTS-YKL-40/BRP-39^−/−) were generated by breeding the CC10-rtTA-tTS-YKL-40 and BRP-39^−/− mice. Mice with caspase-3-null mutations were kindly provided by Dr. Flavell (Dept. of Immunobiology, Yale University School of Medicine). Animal protocols were approved by the Yale University Institutional Animal Care and Use Committee, the guidelines of which were followed for all experiments.\nMice (4-6 wk old) were placed in cages in an airtight Plexiglas chamber (55×40×50 cm), as described previously (Waxman et al., 1998, J Clin Invest 101:1970-1982; Ward et al., 2000, Am J Respir Cell Mol Biol 22:535-542; Wang et al., 2003, J Biol Chem 278:31226-31232). Throughout the experiment, they were given free access to food and water. Oxygen levels were constantly monitored by an oxygen sensor, which was connected to a relay switch incorporated into the oxygen supply circuit. The inside of the chamber was kept at atmospheric pressure, and mice were exposed to a 12-hour light-dark cycle. […]\nBronchoalveolar lavage (BAL; 50 μg) fluids and/or lung lysates were subjected to immunoblot analysis with antibodies against inhibitor of caspase-activated deoxyribonuclease (Chemicon International, Billerica, Mass.), caspase-3 (Cell Signaling Technology, Danvers, Mass.) or β-tubulin (Santa Cruz Biotechnology, Inc.), and the polyclonal rabbit antiserum against BRP-39, as noted above. These samples were fractionated by polyacrylamide gel electrophoresis, transferred to membranes, and evaluated as described previously (Kang et al., 2007, J Exp Med 204:1083-1093).\nThe levels of BRP-39 in BAL or lung lysates were evaluated by ELISA with an anti-BRP-39 rabbit polyclonal IgG for capture and biotinylated anti-BRP-39, followed by horseradish peroxidase-labeled streptavidin (GE Healthcare, Piscataway, N.J.) for detection. […] The levels of BAL fluid CXCL-1 and CCL-2 were measured by ELISA with commercial kits (R&D Systems, Minneapolis, Minn.), as directed by the manufacturer.\nDNA fragmentation and cell death were evaluated with terminal deoxynucleotidyl transferase-mediated dUTP nick end labeling (TUNEL) assays, as previously described. […]"}}}
{"molecule": "CC(=O)N[C@@H](CS)C(=O)O", "note": "[N-acetyl-L-cysteine]", "values": [{"measurement": "effect on hyperoxia inhibition of YKL-40 expression", "setting": "BEAS-2B cells", "result": "abrogated the YKL-40-inhibiting effects of hyperoxia"}]}
{"molecule": "YKL-40: human homolog of BRP-39, chitinase-like protein; inducibly overexpressed as a transgene in mouse lung epithelium", "values": [{"measurement": "survival in 100% oxygen", "setting": "mice exposed to 100% O2; BRP-39−/− mice with epithelial-targeted transgenic YKL-40 (CC10-rtTA-tTS-YKL-40/BRP-39−/−), FIG. 5A", "result": "enhanced the survival"}, {"measurement": "augmented hyperoxia-induced responses (permeability, protein leak, tissue and BAL inflammation, KC/CXCL-1 and MCP-1/CCL2, TUNEL-positive cell death, caspase-3 activation)", "setting": "mice exposed to 100% O2; BRP-39−/− mice with epithelial-targeted transgenic YKL-40, 100% O2, FIGS. 5B-5H", "result": "restored to levels comparable to those in WT animals"}, {"measurement": "survival in 100% O2", "setting": "mice exposed to 100% O2; CC10-rtTA-tTS-YKL-40 mice on WT genetic background, FIG. 5I", "result": "enhanced"}, {"measurement": "alveolar capillary permeability alterations, protein leak, tissue and BAL inflammation, KC/CXCL-1 and MCP-1/CCL2 production, TUNEL-positive cell death, caspase-3 activation", "setting": "mice exposed to 100% O2; YKL-40 Tg animals on WT genetic background, 100% O2, FIGS. 5B-5H", "result": "diminished"}]}
